Source: patent US9926297B2, “Bicyclic AZA compounds as muscarinic M1 receptor and/or M4 receptor agonists” (Heptares Therapeutics Limited, priority 2014, dated 2018)

What was measured:
[1] = molecular target: T1, human muscarinic M1 receptor (Homo sapiens, UniProt P11229); experiment: Alphascreen Surefire phospho-ERK1/2 functional assay, M1; assay type: cell-based; conditions: for EC50: read-out: pEC50 M1 (converted); for Emax: CHO, read-out: % Emax cf. ACh, M1, CHO cells stably expressing human M1; for Emax / % Emax cf. ACh, M1: relative to ACh
T1 sequence (P11229 1-460): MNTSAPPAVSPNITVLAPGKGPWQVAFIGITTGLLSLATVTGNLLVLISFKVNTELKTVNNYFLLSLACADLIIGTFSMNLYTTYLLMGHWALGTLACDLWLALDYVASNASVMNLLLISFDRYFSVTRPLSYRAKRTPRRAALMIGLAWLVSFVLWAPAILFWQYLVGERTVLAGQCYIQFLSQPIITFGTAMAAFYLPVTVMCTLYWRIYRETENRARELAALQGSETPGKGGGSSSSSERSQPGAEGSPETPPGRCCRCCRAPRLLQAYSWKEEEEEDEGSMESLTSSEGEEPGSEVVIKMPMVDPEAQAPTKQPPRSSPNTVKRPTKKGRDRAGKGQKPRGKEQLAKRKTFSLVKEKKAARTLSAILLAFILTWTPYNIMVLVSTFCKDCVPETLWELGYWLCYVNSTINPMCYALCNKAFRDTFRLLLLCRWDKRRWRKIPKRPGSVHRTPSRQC

[2] = molecular target: T2, human muscarinic M4 receptor (Homo sapiens, UniProt P08173); experiment: Alphascreen Surefire phospho-ERK1/2 functional assay, M4; assay type: cell-based; conditions: for EC50 / % Emax cf. ACh, M4: CHO cells stably expressing human M4; for EC50: phospho-ERK1/2, * = variable results, read-out: pEC50 M4 (converted); for Emax: CHO, read-out: % Emax cf. ACh, M4, CHO cells stably expressing human M4; for Emax / % Emax cf. ACh, M4: relative to ACh
T2 construct: expressed in transfected cells
T2 sequence (P08173 1-479): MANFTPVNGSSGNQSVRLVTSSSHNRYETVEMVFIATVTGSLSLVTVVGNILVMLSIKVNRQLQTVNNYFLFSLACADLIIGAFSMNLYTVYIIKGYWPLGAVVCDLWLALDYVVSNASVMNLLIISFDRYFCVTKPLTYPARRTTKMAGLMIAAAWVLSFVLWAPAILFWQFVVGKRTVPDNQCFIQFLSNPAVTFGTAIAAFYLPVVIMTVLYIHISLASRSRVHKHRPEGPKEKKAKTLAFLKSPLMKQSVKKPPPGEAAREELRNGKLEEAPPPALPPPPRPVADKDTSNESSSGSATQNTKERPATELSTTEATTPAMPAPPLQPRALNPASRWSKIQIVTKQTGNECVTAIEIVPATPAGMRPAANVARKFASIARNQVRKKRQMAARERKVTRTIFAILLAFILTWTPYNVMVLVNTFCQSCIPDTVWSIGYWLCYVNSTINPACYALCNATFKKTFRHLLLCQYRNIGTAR

[3] = CHO cells stably expressing human M1, phospho-ERK1/2, * = variable results
[4] = CHO cells stably expressing human M1

Row | Structure (SMILES) | EC50 [1, 3] | Emax [1] | EC50 [2] | Emax [2] | % Emax cf. ACh, M1 [1, 4] | pEC50 M1 [1, 3] | % Emax cf. ACh, M4 [2]
1 | CCOC(=O)N1CCC2(CC(N3CCC(c4nnnn4C)CC3)C2)C1 (single isomer, unassigned) [1-64 Isomer 2, ethyl 2-[4-(1-methyl-1H-tetrazol-5-yl)piperidin-1-yl]-6-azaspiro[3.4]octane-6-carboxylate] | 5010 nM | 40% | 316 nM | 78% | – | – | –
2 | CCOC(=O)N1CCC2(CC(N3CCC([C@@H]4CCCN4C(=O)N(C)CC(F)(F)F)CC3)C2)C1 (single isomer, unassigned) [2-55 Isomer 1] | > 20000 nM | – | 158 nM | 67% | 15% | – | –
3 | CCOC(=O)N1CCC2(CC(N3CCC(n4nnnc4C)CC3)C2)C1 (single isomer, unassigned) [1-63 Isomer 2, ethyl 2-[4-(5-methyl-1H-tetrazol-1-yl)piperidin-1-yl]-6-azaspiro[3.4]octane-6-carboxylate] | > 20000 nM | 82% | 1000 nM | 24% | – | – | –
4 | CCOC(=O)N1CCC2(CC(N3CCC(c4nnc(CC)[nH]4)CC3)C2)C1 (single isomer, unassigned) [1-27 Isomer 2, ethyl 2-[4-(5-ethyl-1H-1,2,4-triazol-3-yl)piperidin-1-yl]-6-azaspiro[3.4]octane-6-carboxylate] | 1000 nM | 27% | 398 nM | 41% | – | – | –
5 | CCOC(=O)N1CCC2(CC(N3CCC(c4nccn4CC(=O)NC)CC3)C2)C1 (single isomer, unassigned) [1-54 Isomer 2, ethyl 2-(4-{1-[2-(methylamino)-2-oxoethyl]-1H-imidazol-2-yl}piperidin-1-yl)-6-azaspiro[3.4]octane-6-carboxylate] | > 20000 nM | 51% | 794 nM | 74% | – | – | –
6 | CCOC(=O)N1CCC2(CC(N3CCC(n4ccnn4)CC3)C2)C1 (single isomer, unassigned) [1-35 Isomer 2, ethyl 2-[4-(1H-1,2,3-triazol-1-yl)piperidin-1-yl]-6-azaspiro[3.4]octane-6-carboxylate] | 398 nM | 80% | 200 nM | 61% | – | – | –
7 | CCOC(=O)N1CCC2(CC(N3CCC(N4CC[C@@H](F)C4)CC3)C2)C1 (single isomer, unassigned) [2-98 Isomer 2] | > 20000 nM | 10% | 126 nM | 45% | – | – | –
8 | CCOC(=O)N1CCC2(CC(N3CCC(N4C(=O)CC[C@@H]4C)CC3)C2)C1 (single isomer, unassigned) [2-115 Isomer 2] | 200 nM | 68% | 25.1 nM | 78% | – | – | –
9 | CCOC(=O)N1CCC2(CC(N3CCC(c4ccn(C)n4)CC3)C2)C1 (single isomer, unassigned) [1-22 Isomer 2, ethyl 2-[4-(1-methyl-1H-pyrazol-3-yl)piperidin-1-yl]-6-azaspiro[3.4]octane-6-carboxylate] | 200 nM | 47% | > 20000 nM | 20% | – | – | –
10 | CCOC(=O)N1CCC2(CC(N3CCC(N4CCN(C)C4=O)CC3)C2)C1 (single isomer, unassigned) [2-125 Isomer 2, ethyl 2-[4-(3-methyl-2-oxoimidazolidin-1-yl)piperidin-1-yl]-6-azaspiro[3.4]octane-6-carboxylate] | 3980 nM | 32% | 316 nM | 81% | – | – | –
11 | [2H]C([2H])([2H])C([2H])([2H])OC(=O)N1CCC2(CC(N3CCC(c4ccnn4C)CC3)C2)C1 (single isomer, unassigned) [1-73 Isomer 2, (^2H5)ethyl 2-[4-(1-methyl-1H-pyrazol-5-yl)piperidin-1-yl]-6-azaspiro[3.4]octane-6-carboxylate] | > 20000 nM | 11% | 126 nM | 72% | – | – | –
12 | COC(=O)N1CCC2(CC(N3CCC(C4CCCN4C(=O)OC)CC3)C2)C1 (single isomer, unassigned) [2-10 Isomer 2, methyl 2-{4-[1-(methoxycarbonyl)pyrrolidin-2-yl]piperidin-1-yl}-6-azaspiro[3.4]octane-6-carboxylate] | > 20000 nM | 19% | 200 nM | 50% | – | – | –
13 | CCOC(=O)N1CCC2(CC(N3CCC(N4CCCC4c4ccn[nH]4)CC3)C2)C1 (single isomer, unassigned) [2-126 Isomer 2, ethyl 2-{4-[2-(1H-pyrazol-5-yl)pyrrolidin-1-yl]piperidin-1-yl}-6-azaspiro[3.4]octane-6-carboxylate] | > 20000 nM | 15% | 79.4 nM | 60% | – | – | –
14 | COC(=O)N1CCC2(CC(N3CCC(c4ncc(Cl)n4C)CC3)C2)C1 (single isomer, unassigned) [1-13 Isomer 2, methyl 2-[4-(5-chloro-1-methyl-1H-imidazol-2-yl)piperidin-1-yl]-6-azaspiro[3.4]octane-6-carboxylate] | 1580 nM | 61% | 398 nM | 86% | – | – | –

The remaining lines, values ahead:

Row | EC50 [1, 3] | Emax [1] | EC50 [2] | Emax [2] | % Emax cf. ACh, M1 [1, 4] | pEC50 M1 [1, 3] | % Emax cf. ACh, M4 [2] | Structure (SMILES)
15 | > 20000 nM | 12% | 100 nM | 55% | – | – | – | CCOC(=O)N1CCC2(CC(N3CCC(N4CCCC4c4nnn(C)n4)CC3)C2)C1 (single isomer, unassigned) [2-129 Isomer 2, ethyl 2-{4-[2-(2-methyl-2H-tetrazol-5-yl)pyrrolidin-1-yl]piperidin-1-yl}-6-azaspiro[3.4]octane-6-carboxylate]
16 | > 20000 nM | 11% | 158 nM | 34% | – | – | – | CCOC(=O)N1CCC2(CC(N3CCC(C4CCCCN4C(=O)NC)CC3)C2)C1 (single isomer, unassigned) [4-20 Isomer 2, ethyl 2-[1-(methylcarbamoyl)-2,4′-bipiperidin-1′-yl]-6-azaspiro[3.4]octane-6-carboxylate]
17 | – | – | 251 nM | – | 29% | 5.5 | 75% | CCOC(=O)N1CCC2(CC(N3CCC(c4c(C)cc[nH]c4=O)CC3)C2)C1 (single isomer, unassigned) [3-14 Isomer 2, ethyl 2-[4-(4-methyl-2-oxo-1,2-dihydropyridin-3-yl)piperidin-1-yl]-6-azaspiro[3.4]octane-6-carboxylate]
18 | > 20000 nM | 27% | 251 nM | 106% | – | – | – | CCOC(=O)N1CCC2(CC(N3CCC(N4CCCC[C@@H]4C(=O)N(C)C)CC3)C2)C1 (single isomer, unassigned) [4-17 Isomer 2]
19 | > 20000 nM | 17% | 39.8 nM | 44% | – | – | – | CCOC(=O)N1CCC2(CC(N3CCC([C@@H]4CCCN4c4nnc(C)o4)CC3)C2)C1 (single isomer, unassigned) [2-138 Isomer 2]
20 | 1000 nM | 78% | 39.8 nM | 111% | – | – | – | CCOC(=O)N1CCC2(CC(N3CCC(N4C[C@@H](F)C[C@@H]4CO)CC3)C2)C1 (single isomer, unassigned) [2-137 Isomer 2]
21 | > 20000 nM | – | 63.1 nM | – | 11% | – | 66% | CCOC(=O)N1CCC2(CC(N3CCC(N4CCCC4c4nnnn4C)CC3)C2)C1 (single isomer, unassigned) [2-130 Isomer 2, ethyl 2-{4-[2-(1-methyl-1H-tetrazol-5-yl)pyrrolidin-1-yl]piperidin-1-yl}-6-azaspiro[3.4]octane-6-carboxylate]
